# Experimental data: patent publication US20140350081A1, “INSECT G-COUPLED RECEPTORS USEFUL AS TARGETS FOR INSECTICIDES AND COMPOUNDS AND REAGENTS IDENTIFIED USING THE SAME” (priority 2011, published 2014)
# Read-outs that look alike come from different tables or passages of the source.
# Legend:
# AaDOP2 [1] = target: T1, AaDOP2 (Aedes aegypti, UniProt H6D5H2); experiment: HTRF cAMP accumulation concentration response assay (Cisbio Dynamic 2); type: cell-based
# Ae. aegypti L3 larvae [2] = experiment: whole plant or invertebrate; details: Aedes aegypti
# Isdop2 = Isdop2 (Ixodes scapularis, UniProt A0ACM8DGL0); experiment: cell-based; details: for inhibition at 10 µM: read-out: % Inhibition (of response to dopamine), Isdop2 screen
# Chain of Isdop2 (A0ACM8DGL0 entry or part of it): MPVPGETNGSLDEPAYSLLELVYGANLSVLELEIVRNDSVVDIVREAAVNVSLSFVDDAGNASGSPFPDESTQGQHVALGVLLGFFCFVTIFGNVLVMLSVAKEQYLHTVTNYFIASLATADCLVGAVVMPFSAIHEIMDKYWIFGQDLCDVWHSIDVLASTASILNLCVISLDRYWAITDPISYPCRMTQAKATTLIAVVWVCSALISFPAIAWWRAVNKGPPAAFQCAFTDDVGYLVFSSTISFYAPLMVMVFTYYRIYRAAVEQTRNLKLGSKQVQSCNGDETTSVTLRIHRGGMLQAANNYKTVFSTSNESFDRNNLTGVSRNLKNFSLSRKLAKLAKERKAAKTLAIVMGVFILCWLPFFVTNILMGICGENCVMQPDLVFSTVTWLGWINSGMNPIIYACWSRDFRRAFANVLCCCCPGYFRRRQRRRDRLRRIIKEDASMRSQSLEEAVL
# AaDOP2 [3] = target: T1, AaDOP2; experiment: LOPAC1280 antagonist screen in HEK-CRELuc-Aadop2 cells; type: cell-based
# [4] = test system: adult male Blatella germanica; experiment: Cockroach assay of Table 16 (title contact assay, text feeding assay); type: in vivo; details: 200 mM compound
# Text: (§1) A series of whole organism bioassays was developed to further evaluate the toxicity of chemistries to a range of agricultural, veterinary and public health pests and non-target insects (Tables 12 and 13). These assays are designed to rapidly explore the biological activity spectrum of chemistries as well as to facilitate initial investigations of the mode of action of insecticidal compounds. Briefly, assays were developed for the German cockroach (Blatella germanica, urban pest), termite (Reticulitermes flavipes; urban pest), lone star tick (Amblyomma americana; veterinary and public health pest), soybean aphid (Aphis glycines, agricultural pest) and honeybee (Apis mellifera; beneficial, non-target insect). The assays were designed to test the toxicity and speed of kill of multiple chemistries on contact. Each of these assays was performed as a single point dose experiment in triplicate using either topical application of compound to the ventral thorax ([…]; 50-80 μg effective dose depending on compound) as is the case for our cockroach and honeybee assays, or 10 second immersion in a solution of the compound diluted in water or DMSO:EtOH to a final concentration of 100 μM. The assays were conducted in 24-well plate format with mortality assessment following incubation at 22° C. as described above. Commercial insecticides were incorporated in these assays to provide a positive control and permit initial comparative analyses. Lead chemistries identified in our in vivo screen have been evaluated in the cockroach and termite assays.
# [5] = test system: adult male Blatella germanica; experiment: Cockroach contact assay (topical application); type: in vivo; details: 200 mM compound
# Text: as §1
# Ae. aegypti L3 larvae [6] = details: 400 μM, three independent experiments
# AaDOP2 [7] = target: T1, AaDOP2; experiment: AaDOP2 agonist screen against the LOPAC1280 library; type: cell-based; details: 10 μM compound; percent of response to 1 μM dihydrexidine
# [8] = AaDOP2 expressing cells in the presence of dopamine, No Inhibition = <10% inhibition at 3 μM test compound, read-out: IC50 ± S.E.M. (nM), HTRF cAMP assay
# [9] = 24 h, read-out: Toxicity to Aedes aegypti larvae (mortality) 24 hours
# [10] = 48 h, read-out: Toxicity to Aedes aegypti larvae (mortality) 48 hours
# [11] = 72 h, read-out: Toxicity to Aedes aegypti larvae (mortality) 72 hours
# [12] = 10 μM compound, 300 nM dopamine, quadruplicate
# T1 sequence (H6D5H2 entry or part of it): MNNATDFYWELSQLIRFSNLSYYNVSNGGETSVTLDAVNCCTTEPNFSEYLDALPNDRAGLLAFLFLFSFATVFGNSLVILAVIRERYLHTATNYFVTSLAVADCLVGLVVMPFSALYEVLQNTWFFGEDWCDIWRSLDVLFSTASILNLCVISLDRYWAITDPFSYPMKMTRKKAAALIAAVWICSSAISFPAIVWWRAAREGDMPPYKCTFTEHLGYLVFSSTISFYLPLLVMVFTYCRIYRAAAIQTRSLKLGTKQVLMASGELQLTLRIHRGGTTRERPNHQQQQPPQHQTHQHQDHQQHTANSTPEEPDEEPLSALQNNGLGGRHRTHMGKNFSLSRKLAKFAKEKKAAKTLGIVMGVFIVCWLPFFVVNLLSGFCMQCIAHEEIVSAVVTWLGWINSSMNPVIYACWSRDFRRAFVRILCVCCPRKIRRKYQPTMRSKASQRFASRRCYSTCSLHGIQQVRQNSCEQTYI
compound,measurement,setting,value
"CN(C)CCCN1c2ccccc2CCc2ccccc21 [Imipramine, 3-(10,11-dihydro-5H-dibenzo[b,f]azepin-5-yl)-N,N-dimethylpropan-1-amine]",IC50,AaDOP2 [1]; [8],360 ± 30 nM
same,mortality at 400 µM,Ae. aegypti L3 larvae [2]; [9],53%
same,mortality at 400 µM,Ae. aegypti L3 larvae [2]; [10],63%
same,mortality at 400 µM,Ae. aegypti L3 larvae [2]; [11],80%
same,inhibition at 10 µM,Isdop2,70%
same,% of the SCH23390 effect,AaDOP2 [3]; [12],96%
same,% inhibition of DA activity (Aedes cell-based assay screen),AaDOP2 [3]; LOPAC1280 screen hits,96%
COC(=O)N(C(=O)N1CO[C@@]2(C(=O)OC)Cc3cc(Cl)ccc3C2=N1)c1ccc(OC(F)(F)F)cc1 [Indoxacarb],% Mortality 24 hrs,[4],63%
same,% Mortality 48 hrs,[4],63%
same,% Mortality 72 hrs,[4],80%
same,% Mortality 120 hrs,[4],100%
same,% Mortality 24 hrs,[5],50%
same,% Mortality 48 hrs,[5],50%
same,% Mortality 72 hrs,[5],70%
same,% Mortality 120 hrs,[5],100%
same,% Mortality 240 hrs,[5],100%
"CN1CCN(C2=Nc3ccccc3Oc3ccc(Cl)cc32)CC1 [Loxapine, 2-Chloro-11-(4-methylpiperazin-1-yl)dibenzo[b,f][1,4]oxazepine]",mortality at 400 µM,"Ae. aegypti L3 larvae [2]; 0.5 h, read-out: percent mortality 0.5 hr, 400 uM, L3 larvae, value for this scoring time",30%
same,mortality at 400 µM,"Ae. aegypti L3 larvae [2]; 1 h, read-out: percent mortality 1 hr, 400 uM, L3 larvae, per scoring time",0%
same,mortality at 400 µM,"Ae. aegypti L3 larvae [2]; 2 h, read-out: percent mortality 2 hr, 400 uM, L3 larvae, per scoring time",30%
same,mortality at 400 µM,"Ae. aegypti L3 larvae [2]; 3 h, read-out: mortality within three hours, 400 μM, L3 larvae",> 70%
same,mortality at 400 µM,"Ae. aegypti L3 larvae [2]; 3 h, read-out: percent mortality 3 hr, 400 uM, L3 larvae, per scoring time",0%
same,mortality at 400 µM,"Ae. aegypti L3 larvae [2]; 4 h, read-out: percent mortality 4 hr, 400 uM, L3 larvae, per scoring time",0%
same,mortality at 400 µM,"Ae. aegypti L3 larvae [2]; 24 h, read-out: percent mortality 24 hr, 400 uM, L3 larvae, per scoring time",0%
same,mortality at 400 µM,"Ae. aegypti L3 larvae [2]; 48 h, read-out: Toxicity to Aedes aegypti larvae (mortality) 48 hours, 400 μM, L3 larvae, three independent experiments",100%
same,mortality at 400 µM,"Ae. aegypti L3 larvae [2]; 48 h, read-out: percent mortality 48 hr, 400 uM, L3 larvae, per scoring time",0%
same,mortality at 400 µM,"Ae. aegypti L3 larvae [2]; 72 h, read-out: Cumulative % Mortality (72 hrs), 400 uM, L3 larvae",100%
same,mortality at 400 µM,"Ae. aegypti L3 larvae [2]; 72 h, read-out: Toxicity to Aedes aegypti larvae (mortality) 72 hours, 400 μM, L3 larvae, three independent experiments",100%
same,mortality at 400 µM,"Ae. aegypti L3 larvae [2]; 72 h, read-out: percent mortality 72 hr, 400 uM, L3 larvae, per scoring time",0%
same,Toxicity to Aedes aegypti larvae (mortality) 24 hours,Ae. aegypti L3 larvae [6],97%
same,inhibition at 10 µM,Isdop2,93%
same,% of the SCH23390 effect,AaDOP2 [3]; [12],97%
same,% inhibition of DA activity (Aedes cell-based assay screen),AaDOP2 [3]; LOPAC1280 screen hits,97%
CC[C@@H](CO)NC(=O)[C@@H]1C=C2c3cccc4[nH]cc(c34)C[C@H]2N(C)C1 [Methylergonovine],% of DHX,AaDOP2 [7],47%
CCNC(=O)[C@H]1O[C@@H](n2cnc3c(NCc4ccccc4)ncnc32)[C@@H](O)C1O (some centres unmarked) [N6-Benzyl-NECA],% of DHX,AaDOP2 [7],36%
CNCCc1ccc(O)c(O)c1 [N-Methyldopamine],% of DHX,AaDOP2 [7],107%
CCCCCCCC/C=C\CCCCCCCC(=O)NCCc1ccc(O)c(O)c1 [N-Oleoyldopamine],% of DHX,AaDOP2 [7],38%
CNCCCN1c2ccccc2CCc2ccc(Cl)cc21 [Norclomipramine],IC50,AaDOP2 [1]; [8],670 ± 35 nM
same,Toxicity to Aedes aegypti larvae (mortality) 24 hours,Ae. aegypti L3 larvae [6],40%
same,Toxicity to Aedes aegypti larvae (mortality) 48 hours,Ae. aegypti L3 larvae [6],63%
same,Toxicity to Aedes aegypti larvae (mortality) 72 hours,Ae. aegypti L3 larvae [6],70%
"CNCCC=C1c2ccccc2CCc2ccccc21 [Nortriptyline, 3-(10,11-dihydro-5H-dibenzo[a,d]cyclohepten-5-ylidene)-N-methyl-1-propanamine]",IC50,"AaDOP2 [1]; IC50 ± S.E.M. (nM), HTRF cAMP assay",140 ± 50 nM
same,mortality at 400 µM,Ae. aegypti L3 larvae [2]; [9],43%
same,mortality at 400 µM,Ae. aegypti L3 larvae [2]; [10],63%
same,mortality at 400 µM,Ae. aegypti L3 larvae [2]; [11],73%
same,inhibition at 10 µM,Isdop2,79%
same,% of the SCH23390 effect,AaDOP2 [3]; [12],96%
same,% inhibition of DA activity (Aedes cell-based assay screen),AaDOP2 [3]; LOPAC1280 screen hits,96%
"CNCCCC1c2ccccc2C=Cc2ccccc21 [Protriptyline, 3-(5H-dibenzo[a,d][7]annulen-5-yl)-N-methylpropan-1-amine]",IC50,"AaDOP2 [1]; read-out: IC50 ± S.E.M. (nM), HTRF cAMP assay",600 ± 250 nM
same,mortality at 400 µM,Ae. aegypti L3 larvae [2]; [9],37%
same,mortality at 400 µM,Ae. aegypti L3 larvae [2]; [10],43%
same,mortality at 400 µM,Ae. aegypti L3 larvae [2]; [11],53%
same,inhibition at 10 µM,Isdop2,75%
same,% inhibition of DA activity (Aedes cell-based assay screen),AaDOP2 [3],82%
same,% of the SCH23390 effect,AaDOP2 [3],82%
C=CCN1CCc2cccc3c2[C@H]1Cc1ccc(O)c(O)c1-3 [R(−)-N-Allyl-NPA],% of DHX,AaDOP2 [7],56%
CCCN1CCc2cccc3c2[C@H]1Cc1ccc(O)c(O)c1-3 [R(−)-Propyl-NPA],% of DHX,AaDOP2 [7],68%
Br.Cc1cccc(C2CN(C)CCc3c2cc(O)c(O)c3Cl)c1 (centres unmarked) [SKF 83959],% of DHX,AaDOP2 [7],30%
same,"% Inhibition (of response to dopamine), Isdop2 screen",Isdop2,87%
Br.Oc1ccc(C2CNCc3sccc32)cc1O (centres unmarked) [SKF 89626],% of DHX,AaDOP2 [7],101%
